Experiment: physchem
Details: octan-1-ol/water, pH 7.4

| SMILES | logD |
| --- | --- |
| CCCC(C)(COC(N)=O)COC(=O)NC(C)C (stereo not given) [CARISOPRODOL] | 2.01 |
| Nc1nc2ccc(Cl)cc2c2nc(-c3ccco3)nn12 [CGS-15943] | 3.98 |
| O=C(O)CCCc1ccc(N(CCCl)CCCl)cc1 [CHLORAMBUCIL] | 1.47 |
| NC(=NCc1ccc(Cl)cc1)SCCCc1cnc[nH]1 [CLOBENPROPIT] | 1.13 |
| COc1cc2c(c(OC)c1OC)-c1ccc(OC)c(=O)cc1[C@@H](NC(C)=O)CC2 [COLCHICINE] | 0.82 |
| Cc1cccc([C@H](C)c2cnc[nH]2)c1C [DEXMEDETOMIDINE] | 2.79 |
| CCC1(C)CC(=O)NC1=O (stereo not given) [ETHOSUXIMIDE] | 0.23 |
| CCc1cc2c(s1)-n1c(C)nnc1CN=C2c1ccccc1Cl [ETIZOLAM] | 2.52 |
| C=C1C[C@@H]2[C@H](CC[C@]3(C)C(=O)CC[C@@H]23)[C@@]2(C)C=CC(=O)C=C12 [EXEMESTANE] | 2.98 |
| CCN(CC)CCN1C(=O)CN=C(c2ccccc2F)c2cc(Cl)ccc21 [FLURAZEPAM] | 2.38 |
| Cc1cc2c(C(C)C)c(O)c(O)c(C=O)c2c(O)c1-c1c(C)cc2c(C(C)C)c(O)c(O)c(C=O)c2c1O [GOSSYPOL] | 2.75 |
| CN1C(=O)NC(=O)C(C)(C2=CCCCC2)C1=O (stereo not given) [HEXOBARBITAL] | 1.5 |
| CN(C(=O)Cc1ccc(Cl)c(Cl)c1)[C@H](CN1CCCC1)c1ccccc1 [ICI-199,441] | 3.42 |
| CC(C)[C@@H](CN1CC[C@@](C)(c2cccc(O)c2)[C@@H](C)C1)NC(=O)[C@H]1Cc2ccc(O)cc2CN1 [JDTIC] | 2.39 |
| CCC1(c2cccc(O)c2)CCCCN(C)C1 (stereo not given) [MEPTAZINOL] | 0.8 |
| NC(=O)C[S+]([O-])C(c1ccccc1)c1ccccc1 (stereo not given) [MODAFINIL] | 1.12 |
| CCn1cc(C(=O)O)c(=O)c2ccc(C)nc21 [NALIDIXIC ACID] | -0.1 |
| Oc1ccc2c3c1O[C@H]1c4[nH]c5ccccc5c4C[C@@]4(O)[C@@H](C2)N(CC2CC2)CC[C@]314 [NALTRINDOLE] | 2.7 |
| O=C1C=CC(=O)c2c(O)ccc(O)c21 [NAPHTHAZALIN] | 1.91 |
| CC1(C)CCC(NC(=O)[C@@H](N)CCC(=O)O)CC1 [NEBOGLAMINE] | -0.27 |
| CN1CCC[C@H]1c1cccnc1 [NICOTINE] | 0.5 |
| NC(=O)c1cc([N+](=O)[O-])cc([N+](=O)[O-])c1 [NITROMIDE] | 0.81 |
| CC(C)Oc1cccc(CC(=O)N2CCC[C@](CC[N+]34CCC(c5ccccc5)(CC3)CC4)(c3ccc(Cl)c(Cl)c3)C2)c1 [NOLPITANTIUM] | 1.23 |
| Oc1ccc2c3c1O[C@H]1c4[nH]c5c(c4C[C@@]4(O)[C@@H](C2)N(CC2CC2)CC[C@]314)C[C@@]1(O)[C@H]2Cc3ccc(O)c4c3[C@@]1(CCN2CC1CC1)[C@H]5O4 [NORBINALTORPHIMINE] | 1.41 |

Same assay, conditions: octan-1-ol/water, pH 7.4, LogD7.4

| SMILES | logD |
| --- | --- |
| C[C@@](Cc1ccc(O)c(O)c1)(NN)C(=O)O [CARBIDOPA ANHYDROUS] | -0.7 |
| O=c1ccoc2ccccc12 [CHROMONE] | 1.4 |
| O=c1cc(-c2ccccc2)oc2cc(O)cc(O)c12 [CHRYSIN] | 3.83 |
| O=C(c1ccc(OCCCc2cnc[nH]2)cc1)C1CC1 [CIPROXIFAN] | 2.68 |
| CCN(CC)CCCNCc1cc(Cl)c2cccnc2c1O [CLAMOXYQUIN] | 0.72 |
| COc1ccccc1CN[C@H]1CCCN[C@H]1c1ccccc1 [CP-99994] | 1.5 |
| CC1CC(OC(=O)C(O)c2ccccc2)CC(C)(C)C1 (stereo not given) [CYCLANDELATE] | 2.31 |
| NS(=O)(=O)c1cc2c(cc1Cl)NC(C1CC3C=CC1C3)NS2(=O)=O (stereo not given) [CYCLOTHIAZIDE] | 2.12 |
| CN1CCC(=C2c3ccccc3C=Cc3ccccc32)CC1 [CYPROHEPTADINE] | 3.06 |
| N[C@H](Cc1c[nH]c2ccccc12)C(=O)O [D-TRYPTOPHAN] | -0.92 |
| NS(=O)(=O)c1cc(Cl)c(Cl)c(S(N)(=O)=O)c1 [DICHLORPHENAMIDE] | 0.92 |
| CCN(CC)CCOC(=O)C1(C2CCCCC2)CCCCC1 [DICYCLOMINE] | 3.72 |
| CN(C)c1ncnc2nc[nH]c12 [DIMETHYLADENINE] | 0.95 |
| NC(Cc1c[nH]c2ccccc12)C(=O)O (stereo not drawn) [DL-TRYPTOPHAN] | -1.17 |
| CC(=O)O[C@@]12CO[C@@H]1C[C@H](O)[C@@]1(C)C(=O)[C@H](O)C3=C(C)[C@@H](OC(=O)[C@H](O)[C@@H](NC(=O)OC(C)(C)C)c4ccccc4)C[C@@](O)([C@@H](OC(=O)c4ccccc4)[C@H]21)C3(C)C [DOCETAXEL] | 3.4 |
| CCCCC(CC)COC(=O)CC(C(=O)OCC(CC)CCCC)S(=O)(=O)O (stereo not given) [DOCUSATE] | 2.93 |
| CN(C)CCOC(C)(c1ccccc1)c1ccccn1 (stereo not given) [DOXYLAMINE] | -0.2 |
| Cn1c(=O)c2c(ncn2CC(O)CO)n(C)c1=O (stereo not given) [DYPHYLLINE] | -1.25 |
| CCN(CC)CCOc1ccc(/C(=C(/Cl)c2ccccc2)c2ccccc2)cc1 [ENCLOMIPHENE] | 4.09 |
| Nc1ccccc1NC(=O)c1ccc(CNC(=O)OCc2cccnc2)cc1 [ENTINOSTAT] | 1.26 |
| CCCCc1ncc(/C=C(\Cc2cccs2)C(=O)O)n1Cc1ccc(C(=O)O)cc1 [EPROSARTAN] | -0.9 |
| NC(=O)N1c2ccccc2C[C@H](O)c2ccccc21 [ESLICARBAZEPINE] | 0.79 |
| C=C(CC)C(=O)c1ccc(OCC(=O)O)c(Cl)c1Cl [ETHACRYNIC ACID] | 0.02 |
| NC(N)=Nc1nc(CSCCC(N)=NS(N)(=O)=O)cs1 [FAMOTIDINE] | -0.6 |

| SMILES | logD |
| --- | --- |
| O=C(O)Cc1csc(-c2ccc(Cl)cc2)n1 [FENCLOZIC ACID] | -0.22 |
| Oc1ccc(C2CNCCc3c2cc(O)c(O)c3Cl)cc1 (stereo not given) [FENOLDOPAM] | 0.87 |
| Cc1c(-c2ccccc2)oc2c(C(=O)OCCN3CCCCC3)cccc2c1=O [FLAVOXATE] | 3.42 |
| CC(=O)[C@@]1(O)CC[C@H]2[C@@H]3C[C@H](C)C4=CC(=O)C=C[C@]4(C)[C@@]3(F)[C@@H](O)C[C@@]21C [FLUOROMETHOLONE] | 2.65 |
| COc1ccc(-c2coc3cc(O)ccc3c2=O)cc1 [FORMONONETIN] | 3.05 |
| CCOC(=O)c1ccc(OC(=O)CCCCCNC(=N)N)cc1 [GABEXATE] | 2.41 |
| Nc1ccn([C@@H]2O[C@H](CO)[C@@H](O)C2(F)F)c(=O)n1 [GEMCITABINE] | -1.5 |
| O=c1c(-c2ccc(O)cc2)coc2cc(O)cc(O)c12 [GENISTEIN] | 3.06 |
| O=C(OCC(O)CO)c1ccccc1Nc1ccnc2cc(Cl)ccc12 (stereo not given) [GLAFENINE] | 3.5 |
| COc1ccccc1OCC(O)CO (stereo not given) [GUAIFENESIN] | 0.24 |
| COc1ccc(COc2ccc(Cc3cnc(N)nc3N)cc2OC)cc1 [GW632580X] | 2.27 |
| CN1CCCN(C(c2ccccc2)c2ccc(Cl)cc2)CC1 (stereo not given) [HOMOCHLORCYCLIZINE] | 2.36 |
| CCN(CCO)CCCC(C)Nc1ccnc2cc(Cl)ccc12 (stereo not given) [HYDROXYCHLOROQUINE] | 0.77 |
| OCCOCCN1CCN(C(c2ccccc2)c2ccc(Cl)cc2)CC1 (stereo not given) [HYDROXYZINE] | 3.08 |
| COc1cc(C(=O)NS(=O)(=O)c2ccccc2)ccc1Cn1ncc2ccc(NC(=O)OC3CCCC3)cc21 [ICI-198615] | 1.8 |
| Oc1ccc(C2=Cc3ccc(O)cc3OC2)cc1 [IDRONOXIL] | 3.8 |
| Oc1c(I)cc(I)c2cccnc12 [IODOQUINOL] | 2.19 |
| CC(C)NC[C@@H](C(=O)N1CCN(c2ncnc3c2[C@H](C)C[C@H]3O)CC1)c1ccc(Cl)cc1 [IPATASERTIB] | 1.3 |
| CN(C)CCCn1c2c(c3ccccc31)CCCCCC2 [IPRINDOLE] | 2.96 |
| CC(C)NNC(=O)c1ccncc1 [IPRONIAZID] | 0.33 |
| NNC(=O)c1ccncc1 [ISONIAZID] | -0.57 |
| c1ccc2cnccc2c1 [ISOQUINOLINE] | 1.6 |
| O=C(c1ccccc1)c1ccc2n1CCC2C(=O)O (stereo not given) [KETOROLAC] | -0.93 |
| CCCc1c(OCCCSc2ccc(CC(=O)O)cc2Cl)ccc2c(CC)noc12 [L-165461] | 3.92 |

| SMILES | logD |
| --- | --- |
| c1ccc([C@H]2CN3CCSC3=N2)cc1 [LEVAMISOLE] | 0.81 |
| COc1ccc2c(c1)N(C[C@H](C)CN(C)C)c1ccccc1S2 [LEVOMEPROMAZINE] | 2.99 |
| CC1(C)Cc2c(-c3ccccc3)c(-c3ccc(Cl)cc3)c(CC(=O)O)n2C1 [LICOFELONE] | 3.07 |
| O=c1[nH]c2cc(Cl)c(Cl)c([N+](=O)[O-])c2[nH]c1=O [LICOSTINEL] | 0.21 |
| CC(Oc1c(Cl)cccc1Cl)C1=NCCN1 (stereo not given) [LOFEXIDINE] | 0.48 |
| CC(C)(N)C(=O)N[C@H](Cc1c[nH]c2ccccc12)C(=O)N[C@H](Cc1c[nH]c2ccccc12)NC=O [MACIMORELIN] | 1 |
| CNC1(C)C2CCC(C2)C1(C)C (stereo not given) [MECAMYLAMINE] | -0.84 |
| Cc1ccc(Cl)c(Nc2ccccc2C(=O)O)c1Cl [MECLOFENAMIC ACID] | 2.33 |
| CC(=O)[C@H]1CC[C@H]2[C@@H]3C[C@H](C)C4=CC(=O)CC[C@]4(C)[C@H]3[C@@H](O)C[C@]12C [MEDRYSONE] | 3.25 |
| CCC1(c2ccccc2)NC(=O)N(C)C1=O (stereo not given) [MEPHENYTOIN] | 1.59 |
| CN1CCCCC1CCN1c2ccccc2Sc2ccc([S+](C)[O-])cc21 (stereo not given) [MESORIDAZINE] | 1.6 |
| COc1ccccc1OCC(O)COC(N)=O (stereo not given) [METHOCARBAMOL] | 0.36 |
| Cc1ccccc1N1C(=O)c2cc(S(N)(=O)=O)c(Cl)cc2NC1C (stereo not given) [METOLAZONE] | 1.64 |
| CN1CCN2c3ncccc3Cc3ccccc3C2C1 (stereo not given) [MIRTAZAPINE] | 2.82 |
| CCc1c(C)[nH]c2c1C(=O)C(CN1CCOCC1)CC2 (stereo not given) [MOLINDONE] | 1.54 |
| COc1ccc2cc(CCC(C)=O)ccc2c1 [NABUMETONE] | 3.06 |
| Cc1cnc(NC(=O)c2cc(Oc3cnc(C(=O)N(C)C)nc3)c3cc(C)oc3c2)cn1 [NERIGLIATIN] | 2.1 |
| O=C(O)c1cccnc1Nc1cccc(C(F)(F)F)c1 [NIFLUMIC ACID] | 1 |
| CCn1cc(C(=O)O)c(=O)c2cc(F)c(N3CCNCC3)cc21 [NORFLOXACIN] | -0.87 |
| COc1ncc(-c2ccc3nccc(-c4ccnnc4)c3c2)cc1NS(=O)(=O)c1ccc(F)cc1F [OMIPALISIB] | 2.5 |
| O=c1c(-c2ccc(O)c(O)c2)coc2cc(O)cc(O)c12 [OROBOL] | 2.45 |
| Cc1[nH]c2ccccc2c1CCNCc1ccc(/C=C/C(=O)NO)cc1 [PANOBINOSTAT] | 1.1 |
| COc1ccnc(C[S+]([O-])c2nc3ccc(OC(F)F)cc3[nH]2)c1OC (stereo not given) [PANTOPRAZOLE] | 2 |

From ChEMBL document CHEMBL3301361, “Experimental in vitro DMPK and physicochemical data on a set of publicly disclosed compounds”
